Reference: US7985417B2, “Method of lipid structure preparation” (Yissum Research Development Company of the Hebrew …, priority 2004, dated 2011)

Tests used:
[1] = Apparent pKa of DOPE-HC in EPC liposomes before and after insertion of PEG-DSPE; type: physicochemical
Procedure: (§1) More generally, and as noted above, the method of microwave irradiation can also be used to insert a lipid-polymer (“lipopolymer”), that is a lipopolymer lacking any ligand, into a pre-formed lipid structure, such as liposomes. This general concept was illustrated in another study, described in Example 4, where liposomes having a lipid bilayer of egg phosphatidylcholine and including a fluorescent label were incubated with a micellar suspension of the lipopolymer DSPE-PEG. Two studies were done, using two different fluorescent labels, shown in FIGS. 4A-4B, incorporated into the liposome lipid bilayers. […] A small amount of one of the fluorescent lipidic labels was included in the lipids during formation of the liposomes.
The DOPE-HC-labeled egg PC liposomes were incubated with DSPE-PEG (MW 2000 Daltons) conjugates in the presence of microwave irradiation for 90 seconds. The extent of lipopolymer insertion was calculated from the apparent pKa, as described in Example 4.
Also in this study, a sample of the EPC liposomes was combined with free polyethylene glycol (PEG, MW 2000 Daltons) and exposed for 90 seconds to microwave irradiation in the microwave oven at 60% capacity (850 W total capacity). No insertion of free PEG (i.e., PEG lacking a lipidic or hydrophobic portion) into liposomes was observed.
(§2) Liposomes comprised of egg phosphatidylcholine (EPC) and labeled with a pH-sensitive probe, 7-heptadecyl-4-hydroxycoumarin (C17HC) (FIG. 4A) or 1,2-dioleoyl-sn-glycero-3-phosphoethanolamine (DOPE-HC) (FIG. 4B), were prepared by thin film hydration followed by down sizing using extrusion. Briefly, EPC and one of the pH-sensitive probes were dissolved in an organic solvent in a round-bottomed flask. The solvent was removed by rotary evaporation to form a thin lipid film that was hydrated with an aqueous buffer to form multilamellar liposomes. The liposome suspension was sized by extrusion through polycarbonate membranes to an average diameter of 100 nm.
(§3) A conjugate of DSPE-PEG (PEG MW 2000 Daltons) was obtained commercially. A micellar suspension of the DSPE-PEG conjugate was mixed with a suspension of the labeled-EPC liposomes were incubated for 90 seconds in the presence of microwave irradiation in a conventional microwave oven operated at 60% power (Spectra, 850 W capacity). The extent of conjugate insertion was determined by the shift in the apparent pKa of HC moiety.
With respect to the liposomes labeled with DOPE-HC, the apparent pKa of DOPE-HC was calculated from the change of the ratio of excitation wavelengths 370/408 (emission wavelength 480 nm) as a function of bulk pH. Fluorescence was measured using an LS-50B luminescence spectrometer (Perkin Elmer, Norwalk, Conn.) immediately after exposure of microwave irradiation and 48 hours after exposure.

[2] = Apparent pKa of C17HC in EPC liposomes before and after insertion of PEG-DSPE; type: physicochemical
Procedure: as §1, §2, §3
With respect to the liposomes labeled with C17HC, the apparent pKa of C17HC was calculated from the change of the ratio of excitation wavelengths 380/330 (emission wavelength 450 nm) as a function of bulk pH (Zuidam and Barenholz, Biochim Biophys Acta, 1329(2):211-22 (1997)). Fluorescence was measured using an LS-50B luminescence spectrometer (Perkin Elmer, Norwalk, Conn.). As a comparative reference, the insertion of DSPE-PEG into the same liposomes at room temperature was also measured.

[3] = EPC with PEG-DSPE (90 sec in MW) after 48 hours
[4] = EPC with PEG-DSPE (90 sec in MW) immediately

What does the source list for CCCCCCCC/C=C\CCCCCCCC(=O)OC[C@H](COP(=O)(O)OCCN)OC(=O)CCCCCCC/C=C\CCCCCCCC [DOPE-HC, 1,2-dioleoyl-sn-glycero-3-phosphoethanolamine]?
apparent pKa ([1]; EPC with PEG (90 sec in MW) after 48 hours): 9.08; apparent pKa ([1]; EPC with PEG (90 sec in MW) immediately): 9.09; apparent pKa [1, 3]: 9.38; apparent pKa [1, 4]: 9.26; apparent pKa ([1]; EPC without PEG-DSPE or 2000PEG, after 48 hours): 9.28; apparent pKa ([1]; EPC without PEG-DSPE or PEG): 9.12

With CCCCCCCCCCCCCCCCCc1ccc2c(O)cc(=O)oc2c1 [C17HC, 7-heptadecyl-4-hydroxycoumarin] as the molecule, how does the “apparent pKa” value [2, 3] read?
The value was 10.28.

What about the “apparent pKa” value [2, 4] of the same molecule?
The value was 9.98.

What about the “apparent pKa” value ([2]; EPC with PEG-DSPE (5 hours at RT)) of the same molecule?
Its value is 10.13.

What about the “apparent pKa” value ([2]; EPC with PEG-DSPE (5 hours at RT) after 48 hours) of the same molecule?
The value was 10.14.

And the “apparent pKa” value ([2]; EPC without PEG-DSPE)?
Its value is 9.41.
